As usually defined, the IC50 is the concentration needed to halve the response being measured. A higher IC50 goes with a need for much substance.

For test [1], the system named is Excised Aorta of Rat (thoracic aorta ring preparations). As to the kind of experiment: Test with Excised Aorta of Rat: relaxation of lasting contraction by KCl. Format: cell-based, male Sprague Dawley rat. Particulars: 50% inhibitory concentration, relaxation of 30 mM KCl contraction, Krebs-Henseleit, 37° C. The procedure:
Test with Excised Aorta of Rat
The thoracic aorta was excised from a male Sprague Dawley rat (450 to 600 g) and cut into 2 mm wide ring preparations. Each preparation was suspended in 10 ml of an Organ bath containing a Krebs-Henseleit solution (NaCl:119; KCl:4.8; CaCl2.2H2 O:2.53; KH2 PO4 :1.2; MgSO4.7H2 O:1.2; NaHCO3 :24.8; glucose:10(mM); 37° C.) under a tension of 2 g, and a mixed gas of 95% O2 and 5% CO2 was bubbled therethrough. Contraction reactions of the preparation were isometrically recorded by means of an FD pick-up. […] The activity of a test compound to relax a lasting contraction by the addition of KCl was evaluated by obtaining a 50% inhibitory concentration (IC50)
The compounds of the present invention obtained in the foregoing Examples and Cromakalim was used as test compound for comparison.

Test [2] deals with Guinea Pig Tracheal Muscle. Nature of the test: Test with Guinea Pig Tracheal Muscle: relaxing activity on spontaneous tension. Conditions: Cavia porcellus; 50% relaxing activity; 1 mM aminophylline on spontaneous tension taken as 100%; Krebs-Henseleit, 37° C. Format: cell-based, male Hartley guinea pig. The method, then:
Test with Guinea Pig Tracheal Muscle
The trachea was excised from a male Hartley guinea pig (450 to 550 g) to make chain preparations. The preparation was suspended in a bath containing the abovementioned Krebs-henseleit solution (37° C.) through which a mixed gas of 95% O2 and 5% CO2 was bubbled. Contraction reactions of the preparation were isometrically recorded under a tension of 1 g.
The same test compound as used in Text Example 1 were used.

In the case of `N#Cc1ccc2c(c1)[C@@H](N1CCCC1=O)[C@H](O)C(CF)(CF)O2` (relative stereo) [Compound 2-2, Trans-6-cyano-2,2-bisfluoromethyl-3,4-dihydro-4-(2-oxo-1-pyrrolidinyl)-2H-1-benzopyran-3-ol], the results for the IC50 in test [1] and in test [2] were 74 nM and 390 nM, respectively. Turning to `O=C1CCCCN1[C@@H]1c2cc(C(F)(F)C(F)(F)F)ccc2OC(CF)(CF)[C@H]1O` (relative stereo) [Compound 4-2, Trans-6-pentafluoroethyl-2,2-bisfluoromethyl-3,4-dihydro-4-(2-oxo-1-piperidinyl)-2H-1-benzopyran-3-ol], the IC50 in test [1] was found to be 0.28 nM; in test [2], 6.9 nM. On to `O=C1CCCCN1[C@@H]1c2cc([N+](=O)[O-])ccc2OC(CF)(CF)[C@H]1O` (relative stereo) [Compound 6-2, Trans-2,2-bisfluoromethyl-3,4-dihydro-6-nitro-4-(2-oxo-1-piperidinyl)-2H-1-benzopyran-3-ol], for which the IC50 in test [1] was determined as 2.6 nM; in test [2], 6.8 nM. The like results for `CC1(C)Oc2ccc(C#N)cc2[C@@H](N2CCCC2=O)[C@@H]1O` (relative stereo) [Cromakalim, reference compound] were, in that order, 170 nM and 860 nM. `O=c1ccccn1C1=CC(CF)(CF)Oc2ccc([N+](=O)[O-])cc21` [Compound 12, 2,2-Bisfluoromethyl-6-nitro-4-(1,2-dihydro-2-oxo-1-pyridyl)-2H-1-benzopyran]: the IC50 worked out at 2.5 nM in test [1] and 5.9 nM in test [2]. With `[O-][n+]1ccccc1C1=CC(CF)(CF)Oc2ccc(C(F)(F)C(F)(F)F)cc21` [Compound 48, 2-(6-Pentafluoroethyl-2,2-bisfluoromethyl-2H-1-benzopyran-4-yl)pyridine N-oxide], the results for the IC50 in test [1] and in test [2] were 1.6 nM and 3.9 nM, respectively. Compound `[O-][n+]1ccccc1C1=CC(CF)(CF)Oc2ccc(C(F)(F)F)cc21` [Compound 50, 2-(2,2-Bisfluoromethyl-6-trifluoromethyl-2H-1-benzopyran-4-yl)pyridine N-oxide] registered an IC50 in test [2] of 18 nM. Consider `N#C[N-][n+]1ccccc1C1=CC(CF)(CF)Oc2ccc([N+](=O)[O-])cc21` [Compound 52, 2-(2,2-Bisfluoromethyl-6-nitro-2H-1-benzopyran-4-yl)pyridine N-cyanoimine], for which the results for the IC50 in test [1] and in test [2] were 2 nM and 12 nM, respectively. Take `N#C[N-][n+]1ccccc1C1=CC(CF)(CF)Oc2ccc(C(F)(F)C(F)(F)F)cc21` [Compound 55, 2-(6-Pentafluoroethyl-2,2-bisfluoromethyl-2H-1-benzopyran-4-yl)pyridine N-cyanoimine]: the IC50 in test [1] worked out at 0.82 nM; in test [2], 6.3 nM.

Source of the values: patent US5874446A, “Benzopyran derivatives” (Chugai Seiyaku Kabushiki Kaisha, priority 1992, dated 1999).
